# Reference: patent US7884242B2, “N-heterocyclylphthaldiamides as insecticides” (Bayer CropScience AG, priority 2004, dated 2011)
# What was measured:
# [1] = log P determination by HPLC on reverse phase column, pH 2.3; assay type: physicochemical; details: reverse phase HPLC column (C 18), reverse phase column (C 18), pH 2.3, 43° C.
# Procedure: The determination of the log P values given in the above table and preparation examples is carried out in accordance with EEC directive 79/831 Annex V.A8 by HPLC (High Performance Liquid Chromatography) on a reverse phase column (C 18). Temperature: 43° C. The determination is carried out under acidic conditions at pH 2.3 with 0.1% aqueous phosphoric acid and acetonitrile as eluents; linear gradient of 10% acetonitrile to 95% acetonitrile. Calibration was is carried out with unbranched alkan-2-ones (with 3 to 16 carbon atoms) of known log P values (Determination of log P values by the retention times by linear interpolation between two sequential alkanones).
# [2] = system: green peach aphid (Myzus persicae); experiment: Myzus test (spray treatment); assay type: in vivo; details: for pest or weed control at 100 g/ha: Myzus persicae, in Brassica oleracea, 120 h, spray treatment, China cabbage slices, after 5 d, read-out: Death rate in % after 5d; for activity in Myzus test (spray treatment): statement in words
# Procedure: [table] For the preparation of a suitable active compound formulation 1 part by weight of the active compound is mixed with the above amounts of solvent and emulsifier and the concentrate is diluted to the desired concentration with water containing emulsifier. China cabbage slices (Brassica pekinensis) that are infected with all stages of the green peach aphid (Myzus persicae) are sprayed with an active compound preparation at the desired concentration. After the desired time the activity in % is determined. Here 100% means that all aphids were killed; 0% means that no aphids were killed.
# [3] = system: larvae of the mustard leaf beetle (Phaedon cochleariae); experiment: Phaedon test (spray treatment); assay type: in vivo; details: for activity in Phaedon test (spray treatment): statement in words
# Procedure: (§1) [table] For the preparation of a suitable active compound formulation 1 part by weight of the active compound is mixed with the above amounts of solvent and emulsifier and the concentrate is diluted to the desired concentration with water containing emulsifier. China cabbage slices (Brassica pekinensis) are sprayed with an active compound preparation of the desired composition and after drying infected with larvae of the mustard leaf beetle (Phaedon cochleariae). After the desired time the activity in % is determined. Here 100% means that all beetle larvae were killed; 0% means that no beetle larvae were killed.
# [4] = system: caterpillars of the fall army worm (Spodoptera frugiperda); experiment: Spodoptera frugiperda test (spray treatment); assay type: in vivo; details: for pest or weed control at 4 g/ha: Spodoptera frugiperda, 168 h, spray treatment, maize leaf sections, after 7 d, read-out: Death rate in % after 7d; for activity in Spodoptera frugiperda test (spray treatment): statement in words
# Procedure: as §1, with “Maize leaf sections (Zea mays)” for “China cabbage slices (Brassica pekinensis)”, “concentration” for “composition”, “caterpillars” for “larvae”, “fall army worm (Spodoptera frugiperda).” for “mustard leaf beetle (Phaedon cochleariae).”, “caterpillars” for “beetle larvae”
# [5] = system: caterpillars of the beet army worm (Spodoptera exigua); experiment: Spodoptera exigua test (resistant strain); assay type: in vivo; details: for Death rate in % after 7d: resistant strain, cabbage leaves dipped; for activity in Spodoptera exigua test (resistant strain): statement in words
# Procedure: [table] For the preparation of a suitable active compound formulation 1 part by weight of the active compound is mixed with the above amounts of solvent and emulsifier and the concentrate is diluted to the desired concentration with water containing emulsifier. Cabbage leaves (Brassica oleracea) are treated by dipping in the active compound preparation at the desired concentration and infected with caterpillars of the beet army worm (Spodoptera exigua) while the leaves are still moist. After the desired time the death rate in % is determined. Here 100% means that all caterpillars were killed; 0% means that no caterpillars were killed.
# [6] = system: green peach aphid (Myzus persicae); experiment: Myzus persicae test; hydroponic treatment; assay type: in vivo; details: for Death rate in % after 6d: 20 ppm in water, hydroponic treatment, pea plant; for activity in Myzus persicae test; hydroponic treatment: statement in words
# Procedure: [table] For the preparation of a suitable active compound formulation 1 part by weight of the active compound is mixed with the above amounts of solvent and emulsifier and the concentrate is diluted to the desired concentration with water. The active compound preparation is mixed with water. The concentration given refers to the amount of active compound per unit volume of water (mg/l=ppm). The treated water is placed in a vessel with a pea plant (Pisum sativum) which is then infection with the green peach aphid (Myzus persicae) is carried out. After the desired time the death rate in % is determined. Here 100% means that all aphids were killed, 0% means that no aphids were killed.
# [7] = system: two-spotted spider mite (Tetranychus urticae); experiment: Tetranychus Test OP resistant; assay type: in vivo
# Procedure: [table] For the preparation of a suitable active compound formulation 1 part by weight of the active compound is mixed with the above amounts of solvent and emulsifier and the concentrate is diluted to the desired concentration with water containing emulsifier. Bean leaf slices (Phaseolus vulgaris) that are infested by all stages of the two-spotted spider mite (Tetranychus urticae) are sprayed with an active substance preparation at the desired concentration. After the desired time the action in % is determined. Here 100% means that all spider mites were killed; 0% means that no spider mites were killed.
# [8] = system: caterpillars of the cotton boll worm (Heliothis armigera); experiment: Heliothis armigera test; assay type: in vivo
# Procedure: [table] For the preparation of a suitable active compound formulation 1 part by weight of the active compound is mixed with the above amounts of solvent and emulsifier and the concentrate is diluted to the desired concentration with water containing emulsifier. Soy bean leaves (Glycine max.) are treated by dipping into the active compound preparation at the desired concentration and infected with the caterpillars of the cotton boll worm (Heliothis armigera), while the leaves are still wet. After the desired time the death rate in % is determined. Here 100% means that all caterpillars were killed; 0% means that no caterpillars were killed.
# [9] = system: caterpillars of the diamond back moth (Plutella xylostella); experiment: Plutella test; assay type: in vivo
# Procedure: [table] For the preparation of a suitable active compound formulation 1 part by weight of the active compound is mixed with the above amounts of solvent and emulsifier and the concentrate is diluted to the desired concentration with water containing emulsifier. Cabbage leaves (Brassica oleracea) are treated by dipping into the active compound preparation of the desired concentration and infected with caterpillars of the diamond back moth (Plutella xylostella) while the leaves were still wet. After the desired time the death rate is determined as %. Here 100% means that all caterpillars were killed; 0% means no caterpillars were killed.
# [10] = log P determination with LC-MS under acidic conditions, pH 2.7; assay type: physicochemical; details: reverse phase HPLC column (C 18)
# Procedure: The determination of the log P values given in the above table and preparation examples is carried out in accordance with EEC directive 79/831 Annex V.A8 by HPLC (High Performance Liquid Chromatography) on a reverse phase column (C 18). Temperature: 43° C. The determination with LC-MS under acidic conditions is carried out at pH 2.7 with 0.1% aqueous formic acid and acetonitrile (contains 01% formic acid) as eluents; linear gradient from 10% acetonitrile to 95% acetonitrile. Calibration was is carried out with unbranched alkan-2-ones (with 3 to 16 carbon atoms) of known log P values (Determination of log P values by the retention times by linear interpolation between two sequential alkanones).
# [11] = Phaedon cochleariae, 168 h, spray treatment, China cabbage slices, after 7 d, read-out: Death rate in % after 7d
Compound,chromatographic logP [1],pest or weed control at 100 g/ha [2] [%],activity in Myzus test (spray treatment) [2],activity in Phaedon test (spray treatment) [3],pest or weed control at 4 g/ha [4] [%],activity in Spodoptera frugiperda test (spray treatment) [4],further results
Cc1nc(Cn2nc(C(F)(F)F)cc2C(F)(F)F)ccc1NC(=O)c1cccc(Cl)c1C(=O)N[C@@H](C)CS(C)(=O)=O [Example 9],2.69,100,good activity,good activity,100,good activity,"pest or weed control at 100 g/ha ([3]; Phaedon cochleariae, 168 h, 100 g/ha, spray treatment, China cabbage slices, after 7 d, read-out: Death rate in % after 7d): 100%; Death rate in % after 7d ([5]; 0.8 ppm): 80%; activity in Spodoptera exigua test (resistant strain) [5]: good activity"
Cc1nc(Cn2nc(C(F)(F)F)cc2C(F)(F)F)ncc1NC(=O)c1cccc(I)c1C(=O)N[C@@H](C)C[S+](C)[O-] (stereo partly drawn) [Example 24],2.27,100,good activity,,83,good activity,Death rate in % after 6d [6]: 95%; activity in Myzus persicae test; hydroponic treatment [6]: good activity
Cc1nc(Cn2nc(C(F)(F)F)nc2C(F)(F)F)ncc1NC(=O)c1cccc(I)c1C(=O)N[C@@H](C)CS(C)(=O)=O [Example 41],2.54,90,good activity,,,,Death rate in % after 6d [6]: 95%; activity in Myzus persicae test; hydroponic treatment [6]: good activity
CSC[C@H](C)NC(=O)c1c(Cl)cccc1C(=O)Nc1cnc(Cn2cc(C(F)(F)C(F)(F)F)c(C(F)(F)C(F)(F)F)n2)nc1C [Example 64],4.11,100,good activity,good activity,100,good activity,"Death rate in % after 5d ([7]; 100 g/ha, OP resistant, bean leaf slices sprayed, after 5 d): 100%; activity in Tetranychus Test OP resistant ([7]; statement in words): good activity; pest or weed control at 4 g/ha [3, 11]: 100%"
Cc1nc(Cn2cc(C(F)(F)C(F)(F)F)c(C(F)(F)C(F)(F)F)n2)ncc1NC(=O)c1cccc(Cl)c1C(=O)N[C@@H](C)CS(C)(=O)=O [Example 66],3.29,100,good activity,good activity,100,good activity,"Death rate in % after 7d ([8]; 0.8 ppm, soy bean leaves dipped, after 7 d): 80%; activity in Heliothis armigera test ([8]; statement in words): good activity; pest or weed control at 4 g/ha [3, 11]: 100%; Death rate in % after 7d ([9]; 0.8 ppm, cabbage leaves dipped, after 7 d): 100%; activity in Plutella test ([9]; statement in words): good activity; Death rate in % after 7d ([5]; 4 ppm): 100%; activity in Spodoptera exigua test (resistant strain) [5]: good activity"
"Cc1nc(Cn2nc(C(F)(F)F)cc2C(F)(F)F)ccc1[N+](=O)[O-] [IV-1, 6-{[3,5-bis(trifluoromethyl)-1H-pyrazol-1-yl]methyl}-2-methyl-3-nitropyridine]",,,,,,,chromatographic logP [10]: 3.8
"Cc1nc(CBr)ccc1[N+](=O)[O-] [VII-1, 6-(bromomethyl)-2-methyl-3-nitropyridine]",,,,,,,chromatographic logP [10]: 2.2
